Test results as given in PubChem BioAssay (NCI).
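Following 48 hours of exposure in 96-well plates, responses at five concentrations were used to interpolate endpoints linearly. At the TGI there is no net growth.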

Legend:
Experiment in all cases: NCI-60 cell line screen, 48 h
HS 578T breast = test system: HS 578T breast
A498 renal = test system: A498 renal
UACC-62 melanoma = test system: UACC-62 melanoma
SN12C renal = test system: SN12C renal
786-0 renal = test system: 786-0 renal
CCRF-CEM leukemia = test system: CCRF-CEM leukemia
PC-3 prostate = test system: PC-3 prostate
MALME-3M melanoma = test system: MALME-3M melanoma
SW-620 colon = test system: SW-620 colon
OVCAR-5 ovarian = test system: OVCAR-5 ovarian
A549 NSCLC = test system: A549 NSCLC
COLO 205 colon = test system: COLO 205 colon
HCT-116 colon = test system: HCT-116 colon
CAKI-1 renal = test system: CAKI-1 renal
TK-10 renal = test system: TK-10 renal
SR leukemia = test system: SR leukemia
KM12 colon = test system: KM12 colon
SF-268 CNS = test system: SF-268 CNS
SNB-19 CNS = test system: SNB-19 CNS
SK-MEL-28 melanoma = test system: SK-MEL-28 melanoma
MDA-N = test system: MDA-N
HOP-92 NSCLC = test system: HOP-92 NSCLC
M14 melanoma = test system: M14 melanoma
NCI/ADR-RES ovarian = test system: NCI/ADR-RES ovarian
UACC-257 melanoma = test system: UACC-257 melanoma
UO-31 renal = test system: UO-31 renal
MDA-MB-231 breast = test system: MDA-MB-231 breast
IGROV1 ovarian = test system: IGROV1 ovarian
HOP-62 NSCLC = test system: HOP-62 NSCLC
MOLT-4 leukemia = test system: MOLT-4 leukemia
RXF 393 renal = test system: RXF 393 renal
SF-295 CNS = test system: SF-295 CNS
K-562 leukemia = test system: K-562 leukemia
RPMI-8226 leukemia = test system: RPMI-8226 leukemia
NCI-H522 lung = test system: NCI-H522 lung
ACHN renal = test system: ACHN renal
OVCAR-8 ovarian = test system: OVCAR-8 ovarian
SF-539 CNS = test system: SF-539 CNS
U251 CNS = test system: U251 CNS
NCI-H460 lung = test system: NCI-H460 lung
BT-549 breast = test system: BT-549 breast
MDA-MB-435 = test system: MDA-MB-435
HCT-15 colon = test system: HCT-15 colon
LOX IMVI melanoma = test system: LOX IMVI melanoma
SK-MEL-5 melanoma = test system: SK-MEL-5 melanoma
OVCAR-3 ovarian = test system: OVCAR-3 ovarian
OVCAR-4 ovarian = test system: OVCAR-4 ovarian
DU-145 prostate = test system: DU-145 prostate
SK-OV-3 ovarian = test system: SK-OV-3 ovarian
NCI-H226 lung = test system: NCI-H226 lung
HT29 colon = test system: HT29 colon
SNB-75 CNS = test system: SNB-75 CNS
HCC-2998 colon = test system: HCC-2998 colon
SK-MEL-2 melanoma = test system: SK-MEL-2 melanoma
NCI-H23 lung = test system: NCI-H23 lung
MCF7 breast = test system: MCF7 breast
HL-60(TB) leukemia = test system: HL-60(TB) leukemia
EKVX NSCLC = test system: EKVX NSCLC
T-47D breast = test system: T-47D breast

COc1ccc(SCc2cc(OC)c(OC)c(OC)c2)cc1OC
TGI (HS 578T breast): > 100 µM | TGI (A498 renal): > 86.4 µM | TGI (UACC-62 melanoma): > 100 µM | TGI (SN12C renal): > 100 µM | TGI (786-0 renal): > 100 µM | TGI (CCRF-CEM leukemia): > 100 µM | TGI (PC-3 prostate): > 100 µM | TGI (MALME-3M melanoma): > 100 µM | TGI (SW-620 colon): > 100 µM | TGI (OVCAR-5 ovarian): > 100 µM | TGI (A549 NSCLC): > 100 µM | TGI (COLO 205 colon): > 100 µM | TGI (HCT-116 colon): > 100 µM | TGI (CAKI-1 renal): > 100 µM | TGI (TK-10 renal): > 100 µM | TGI (SR leukemia): > 100 µM | TGI (KM12 colon): > 100 µM | TGI (SF-268 CNS): > 100 µM | TGI (SNB-19 CNS): > 100 µM | TGI (SK-MEL-28 melanoma): > 100 µM | TGI (MDA-N): > 100 µM | TGI (HOP-92 NSCLC): 83.3 µM | TGI (M14 melanoma): > 100 µM | TGI (NCI/ADR-RES ovarian): > 100 µM | TGI (UACC-257 melanoma): > 100 µM | TGI (UO-31 renal): > 100 µM | TGI (MDA-MB-231 breast): > 100 µM | TGI (IGROV1 ovarian): > 100 µM | TGI (HOP-62 NSCLC): > 100 µM | TGI (MOLT-4 leukemia): > 100 µM | TGI (RXF 393 renal): > 100 µM | TGI (SF-295 CNS): > 100 µM | TGI (K-562 leukemia): > 100 µM | TGI (RPMI-8226 leukemia): > 100 µM | TGI (NCI-H522 lung): > 100 µM | TGI (ACHN renal): > 100 µM | TGI (OVCAR-8 ovarian): > 100 µM | TGI (SF-539 CNS): > 100 µM | TGI (U251 CNS): > 100 µM | TGI (NCI-H460 lung): > 100 µM | TGI (BT-549 breast): > 100 µM | TGI (MDA-MB-435): 63.1 µM | TGI (HCT-15 colon): > 100 µM | TGI (LOX IMVI melanoma): > 100 µM | TGI (SK-MEL-5 melanoma): 34.7 µM | TGI (OVCAR-3 ovarian): > 100 µM | TGI (OVCAR-4 ovarian): > 100 µM | TGI (DU-145 prostate): > 100 µM | TGI (SK-OV-3 ovarian): > 90.1 µM | TGI (NCI-H226 lung): > 100 µM | TGI (HT29 colon): > 100 µM | TGI (SNB-75 CNS): > 70.5 µM | TGI (HCC-2998 colon): > 100 µM | TGI (SK-MEL-2 melanoma): > 69.1 µM | TGI (NCI-H23 lung): > 100 µM | TGI (MCF7 breast): > 100 µM | TGI (HL-60(TB) leukemia): > 100 µM | TGI (EKVX NSCLC): > 100 µM | TGI (T-47D breast): > 31.6 µM

O=C(O)c1cc(C(=O)O)nc(C(=O)O)c1
TGI (HS 578T breast): > 100 µM | TGI (A498 renal): > 100 µM | TGI (UACC-62 melanoma): > 100 µM | TGI (SN12C renal): > 100 µM | TGI (786-0 renal): > 100 µM | TGI (CCRF-CEM leukemia): > 100 µM | TGI (PC-3 prostate): > 100 µM | TGI (MALME-3M melanoma): > 100 µM | TGI (SW-620 colon): > 100 µM | TGI (OVCAR-5 ovarian): > 100 µM | TGI (A549 NSCLC): > 100 µM | TGI (COLO 205 colon): > 100 µM | TGI (HCT-116 colon): > 100 µM | TGI (CAKI-1 renal): > 100 µM | TGI (TK-10 renal): > 100 µM | TGI (SR leukemia): > 100 µM | TGI (KM12 colon): > 100 µM | TGI (SF-268 CNS): > 100 µM | TGI (SNB-19 CNS): > 100 µM | TGI (SK-MEL-28 melanoma): > 100 µM | TGI (MDA-N): > 100 µM | TGI (HOP-92 NSCLC): > 100 µM | TGI (M14 melanoma): > 100 µM | TGI (NCI/ADR-RES ovarian): > 100 µM | TGI (UACC-257 melanoma): > 100 µM | TGI (UO-31 renal): > 100 µM | TGI (MDA-MB-231 breast): > 100 µM | TGI (IGROV1 ovarian): > 100 µM | TGI (HOP-62 NSCLC): > 100 µM | TGI (MOLT-4 leukemia): > 100 µM | TGI (RXF 393 renal): > 100 µM | TGI (SF-295 CNS): > 100 µM | TGI (K-562 leukemia): > 100 µM | TGI (RPMI-8226 leukemia): > 100 µM | TGI (NCI-H522 lung): > 100 µM | TGI (ACHN renal): > 100 µM | TGI (OVCAR-8 ovarian): > 100 µM | TGI (SF-539 CNS): > 100 µM | TGI (U251 CNS): > 100 µM | TGI (NCI-H460 lung): > 100 µM | TGI (BT-549 breast): > 100 µM | TGI (MDA-MB-435): > 100 µM | TGI (HCT-15 colon): > 100 µM | TGI (LOX IMVI melanoma): > 100 µM | TGI (SK-MEL-5 melanoma): > 100 µM | TGI (OVCAR-3 ovarian): > 100 µM | TGI (OVCAR-4 ovarian): > 100 µM | TGI (DU-145 prostate): > 100 µM | TGI (SK-OV-3 ovarian): > 100 µM | TGI (NCI-H226 lung): > 100 µM | TGI (HT29 colon): > 100 µM | TGI (SNB-75 CNS): > 100 µM | TGI (HCC-2998 colon): > 100 µM | TGI (SK-MEL-2 melanoma): > 100 µM | TGI (NCI-H23 lung): > 100 µM | TGI (MCF7 breast): > 100 µM | TGI (HL-60(TB) leukemia): > 100 µM | TGI (EKVX NSCLC): > 100 µM | TGI (T-47D breast): > 100 µM
